# Where two headings read alike, the source gives them in different places.
# Columns and labels:
# TZM-bl cell line = type: cell-based; settings: human, 1 μM
# Method in brief: (§1)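 Nef-dependent infectivity in TZM-bl cells: HIV-1NL4-3 infection with 1 μM compound, luciferase read at 48 h, normalized against DMSO wild-type and Nef-defective controls. Compound cytotoxicity in uninfected cells measured by Cell Titer Blue.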
# HIV-1NL4-3 = assay: HIV-1 infectivity assay in TZM-bl reporter cell line (LTR-luciferase, 48 h); type: cell-based; settings: Human immunodeficiency virus 1, TZM-bl
# Method in brief: as §1
# HIV-1 NefNL4-3 = HIV-1 NefNL4-3 (Human immunodeficiency virus type 1 group M subtype B, UniProt P03406, A33V/T15A/T51N/V11I); assay: Surface plasmon resonance binding to recombinant full-length Nef (NL4-3); settings: for RU30/RUNef (extent of binding): response units at 30 μM relative to Nef immobilized on the SPR chip; for Nef NL4-3 Binding, SPR 1:1 or 2-site fitting KD1: 1:1 Langmuir fit where the KD2 cell says '1 to 1 fitting', else 2-site fit
# [1] = 1.0 μM, TZM-bl reporter cell line, Table 4, read-out: % Infectivity Inhibition
# [2] = KD, M, Table 4, SPR fit 1:1 Langmuir, KD = koff/kon
# [3] = Table 4, 1:1 Langmuir fit, T = 1/koff
# [4] = 48 h, Table 1, TZM-bl cells, 1 μM, 48 h, 100% = Nef-defective HIV-1, read-out: HIV-1 Infectivity % Inhibition Norm. to Δ-Nef @ 1 μM
# [5] = Nef NL4-3 Binding, SPR 1:1 or 2-site fitting KD2, Table 1, 2-site fit, second component
# [6] = KD, M, Table 4, SPR fit 2-step induced fit, KD = koff/kon × koff2/(koff2 + kon2)
# [7] = Nef NL4-3 Binding, SPR 2-state fitting KD, Table 1, 2-step induced-fit model
# [8] = Table 4, 2-step induced fit, T = 1/koff2
# [9] = read-out: Nef NL4-3 Binding, SPR 1:1 or 2-site fitting KD2, Table 1, 2-site fit, second component
Structure (SMILES),% Cell Viability (TZM-bl cell line) [%],inhibition at 1 µM (HIV-1NL4-3; [1]) [%],Kd (HIV-1 NefNL4-3; [2]) [µM],"T, minutes (residence time) (HIV-1 NefNL4-3; [3])",RU30/RUNef (extent of binding) (HIV-1 NefNL4-3),Percent Viability @ 1 μM (TZM-bl cells) (TZM-bl cell line) [%],inhibition at 1 µM (HIV-1NL4-3; [4]) [%],"Nef NL4-3 Binding, SPR 1:1 or 2-site fitting KD1 (HIV-1 NefNL4-3; Table 1)",Kd (HIV-1 NefNL4-3) [µM],Kd (HIV-1 NefNL4-3; [5]) [µM],Kd (HIV-1 NefNL4-3; [6]) [µM],Kd (HIV-1 NefNL4-3; [7]) [µM],"T, minutes (residence time) (HIV-1 NefNL4-3; [8])",Kd (HIV-1 NefNL4-3; [9]) [µM]
"Oc1c(CC2CCCOC2)c(-c2ccc(F)cc2)nn1-c1nc2ccccc2[nH]1 (centres unmarked) [Compound I-175, 1-(1H-1,3-benzodiazol-2-yl)-3-(4-fluorophenyl)-4-[(oxan-3-yl)methyl]-1H-pyrazol-5-ol]",88.8,67.2,0.605,7.72E + 00 minutes,6.67E- 04,–,–,–,–,–,–,–,–,–
"CC(C)(C)OC(=O)N1CCC(Cc2nn(-c3nc4ccccc4[nH]3)c(O)c2CCc2ccc(F)cc2)C1 (centres unmarked) [Compound I-206, tert-butyl 3-{[1-(1H-1,3-benzodiazol-2-yl)-4-[2-(4-fluorophenyl)ethyl]-5-hydroxy-1H-pyrazol-3-yl]methyl}pyrrolidine-1-carboxylate]",–,–,–,–,–,90.6,35.2,No Interaction,–,–,–,–,–,–
"Oc1c(CCc2ccc(F)cc2)c(-c2ccc(C(F)(F)F)cc2)nn1-c1nc2ccccc2[nH]1 [Compound I-106, 1-(1H-1,3-benzodiazol-2-yl)-4-[2-(4-fluorophenyl)ethyl]-3-[4-(trifluoromethyl)phenyl]-1H-pyrazol-5-ol]",–,–,–,–,–,84.5,98.2,–,20.2,3.26,–,–,–,–
"Oc1c(CCc2ccc(F)cc2)c(C2CCN(Cc3ccccn3)CC2)nn1-c1nc2ccccc2[nH]1 [Compound I-802, 1-(1H-1,3-benzodiazol-2-yl)-4-[2-(4-fluorophenyl)ethyl]-3-{1-[(pyridin-2-yl)methyl]piperidin-4-yl}-1H-pyrazol-5-ol]",99.3,4.4,–,–,2.48E- 03,99.3,4.4,–,0.447,–,0.182,0.182,2.21E + 01 minutes,–
"Oc1c(CCc2ccc(F)cc2)c(C2CCOCC2)nn1-c1nc2cccnc2[nH]1 [Compound I-314, 4-[2-(4-fluorophenyl)ethyl]-1-{3H-imidazo[4,5-b]pyridin-2-yl}-3-(oxan-4-yl)-1H-pyrazol-5-ol]",100,0,0.705,1.79E + 01 minutes,2.97E- 03,100.1,-1,–,0.705,–,–,–,–,–
"O=C(C1CC1)N1CCC(CCc2c(C3CC3)nn(-c3nc4cc(Cl)ccc4[nH]3)c2O)CC1 [Compound I-711, 1-(5-chloro-1H-1,3-benzodiazol-2-yl)-4-[2-(1-cyclopropanecarbonylpiperidin-4-yl)ethyl]-3-cyclopropyl-1H-pyrazol-5-ol]",97.2,0,–,–,1.96E- 02,97.2,-0.4,–,–,–,3.29,3.29,5.97E + 00 minutes,8.64
"CC(C)(C)OC(=O)NCc1nn(-c2nc3ccccc3[nH]2)c(O)c1CCc1ccc(F)cc1 [Compound I-212, tert-butyl N-{[1-(1H-1,3-benzodiazol-2-yl)-4-[2-(4-fluorophenyl)ethyl]-5-hydroxy-1H-pyrazol-3-yl]methyl}carbamate]",–,–,–,–,–,92.9,50.9,–,0.538,1.48,–,2.32,–,–
"CN(C)S(=O)(=O)N1CCC(c2nn(-c3nc4ccccc4[nH]3)c(O)c2CCC2CCOCC2)CC1 [Compound I-724, 4-[1-(1H-1,3-benzodiazol-2-yl)-5-hydroxy-4-[2-(oxan-4-yl)ethyl]-1H-pyrazol-3-yl]-N,N-dimethylpiperidine-1-sulfonamide]",–,–,–,–,–,98.6,55.8,No Interaction,–,–,–,–,–,–
"CC(C)(C)OC(=O)N1CCC(c2nn(-c3nc4cccnc4[nH]3)c(O)c2CCc2ccc(F)cc2)CC1 [Compound I-220, tert-butyl 4-{4-[2-(4-fluorophenyl)ethyl]-5-hydroxy-1-{3H-imidazo[4,5-b]pyridin-2-yl}-1H-pyrazol-3-yl}piperidine-1-carboxylate]",100,9.8,–,–,7.24E- 03,103.6,9.8,–,0.283,–,3.95,3.95,6.92E + 00 minutes,3.82
"Nc1c(CCc2ccc(F)cc2)c(-c2ccc(Cl)cc2)nn1-c1nc2ccccc2[nH]1 [Compound I-1401, 1-(1H-1,3-benzodiazol-2-yl)-3-(4-chlorophenyl)-4-[2-(4-fluorophenyl)ethyl]-1H-pyrazol-5-amine]",–,–,–,–,–,99.7,-34.5,No Interaction,–,–,–,–,–,–
"CC(=O)N1CCC(c2nn(-c3nc4cc(Cl)ccc4[nH]3)c(O)c2CCn2nccn2)CC1 [Compound I-704, 1-{4-[1-(5-chloro-1H-1,3-benzodiazol-2-yl)-5-hydroxy-4-[2-(2H-1,2,3-triazol-2-yl)ethyl]-1H-pyrazol-3-yl]piperidin-1-yl}ethan-1-one]",99.4,6.6,3.62,7.61E + 00 minutes,1.92E- 03,99.4,6.6,–,3.62,–,–,–,–,–
"CS(=O)(=O)N1CCC(c2nn(-c3nc4cc(Cl)ccc4[nH]3)c(O)c2CCC2CCOCC2)CC1 [Compound I-706, 1-(5-chloro-1H-1,3-benzodiazol-2-yl)-3-(1-methanesulfonylpiperidin-4-yl)-4-[2-(oxan-4-yl)ethyl]-1H-pyrazol-5-ol]",98.6,9.8,1.17,3.95E + 00 minutes,2.34E- 03,98.6,9.8,–,1.17,–,–,–,–,–
"Oc1c(CC2CCCCO2)c(-c2ccc(C(F)(F)F)cc2)nn1-c1nc2ccccc2[nH]1 (centres unmarked) [Compound I-122, 1-(1H-1,3-benzodiazol-2-yl)-4-[(oxan-2-yl)methyl]-3-[4-(trifluoromethyl)phenyl]-1H-pyrazol-5-ol]",75.2,95.4,–,–,1.07E- 02,75.2,95.4,–,1.24,–,2.25,1.86,1.02E + 01 minutes,11.6
"Oc1c(CCc2ccc(F)cc2)c(-c2ccc(C(F)(F)F)cn2)nn1-c1nc2cccnc2[nH]1 [Compound I-302, 4-[2-(4-fluorophenyl)ethyl]-1-{3H-imidazo[4,5-b]pyridin-2-yl}-3-[5-(trifluoromethyl)pyridin-2-yl]-1H-pyrazol-5-ol]",98.9,0,3.61,8.82E + 00 minutes,1.66E- 03,98.9,-2.4,–,3.61,–,–,–,–,–
"Cn1c(-n2nc(-c3cccc(S(C)(=O)=O)c3)c(CCc3ccc(F)cc3)c2O)nc2ccccc21 [Compound I-405, 4-[2-(4-fluorophenyl)ethyl]-3-(3-methanesulfonylphenyl)-1-(1-methyl-1H-1,3-benzodiazol-2-yl)-1H-pyrazol-5-ol]",95.7,0,4.39,2.32E + 00 minutes,3.25E- 03,95.7,-9.6,–,4.39,–,–,–,–,–
"CC(=O)N1CCC(CCc2c(-c3ccc(C(F)(F)F)cn3)nn(-c3nc4cc(Br)ccc4[nH]3)c2O)CC1 [Compound I-709, 1-(4-{2-[1-(5-bromo-1H-1,3-benzodiazol-2-yl)-5-hydroxy-3-[5-(trifluoromethyl)pyridin-2-yl]-1H-pyrazol-4-yl]ethyl}piperidin-1-yl)ethan-1-one]",74.0,66.7,0.0263,5.18E + 02 minutes,8.85E- 04,74.0,66.7,–,0.0263,–,–,–,–,–
"Oc1c(CCC2CCNCC2)c(-c2ccc(C(F)(F)F)cc2)nn1-c1nc2ccccc2[nH]1 [Compound I-552, 1-(1H-1,3-benzodiazol-2-yl)-4-[2-(piperidin-4-yl)ethyl]-3-[4-(trifluoromethyl)phenyl]-1H-pyrazol-5-ol]",91.4,50.5,–,–,1.04E- 02,91.4,50.5,–,0.554,–,1.04,0.749,2.17E + 01 minutes,16.5

# Reference: patent publication US20220380341A1, “INHIBITORS OF HIV-1 NEF FOR THE TREATMENT OF HIV DISEASE” (priority 2018, published 2022)
